Experimental data published in patent US10155753B2, “4-substituted-2-(5-substituted-1H-indol-2-yl)phenol derivatives, methods for preparing the phenol derivatives and pharmaceutical compositions for inhibiting cell proliferation and migration including the phenol derivatives” (KOREA UNIVERSITY RESEARCH AND BUSINESS FOUNDATION, priority 2015, dated 2018).

Tests used:
[1] = system: YANK-expressed cells (STK32C/MCF7 cell); assay: Inhibition of cell proliferation (MCF7, STK32C/MCF7 cells, 96-well, read at 450 nm); type: cell-based; settings: 24 h after addition of compound; FIGS. 3 to 6
Protocol: MCF7, STK32C/MCF7 cell (1×10^4/well) culture was plated in each well of a 96-well plate until it reached a final volume of 100 μl. After 24 h, the compounds at given concentrations were added. 24 h after the addition, 10 μl of an analytical reagent was plated in each well without bubbling. The reaction was allowed to proceed under basic culture conditions for 30 min to 1 h and the inhibitions of cell proliferation were measured at 450 nm.
FIGS. 3 to 6 show concentration-dependent inhibitions of proliferation of the YANK-expressed cells by treatment with the phenol derivatives of Formulae 7, 9, 13, and 32 (corresponding to Compound 34 in FIG. 2), respectively.

YANK3 = target: T1, YANK3 (Homo sapiens, UniProt Q86UX6); assay: In vitro kinase assay: inhibition of YANK3 phosphorylation (IP kinase, [γ-32P]ATP, autoradiography); type: biochemical; design: dose or concentration left out as unconfirmed; settings: MCF7 cells treated with each compound at 37° C. for 1 h; anti-HA IP, kinase reaction 30° C. 30 min
T1 construct: expressed in transfected cells; host or cells: MCF7 cells, Lipofectamine transfection, anti-HA immunoprecipitation
Protocol: Transduction was performed to overexpress YANK3-HA and YB1-HA genes in cells. Lipofectamine reagent (Invitrogen) was used for gene introgression. When cells were grown to a confluency of 60% in a culture dish, human YANK3-HA and YB1-HA genes were introduced into MCF7 cells. After 48 h, the gene-transfected cells were used for experiments. All cultured cells were harvested, lysed in a lysis buffer (1×RIPA buffer 1 mL, 1 mM PMSF, 1 mg/mL aprotinin, 1 mg/mL leupeptin, 2 mM DTT) for 30 min, and centrifuged at 15,000 rpm and 4° C. for 30 min. The supernatant was collected and its total protein content was quantified by the Bradford method. After YB1-HA gene introgression, the MCF7 cells were treated with each compound […] at 37° C. for 1 h. 1 μg of anti-HA antibody was cultured with […] of protein at 4° C. for 15 h, 20 μL of protein A/G-Sepharose was added thereto, followed by culture for another 2 h. The culture was centrifuged to precipitate the protein A/G-Sepharose, washed with IP kinase buffer (50 mM HEPES, pH 7.5, 10 mM MgCl2, 1 mM dithiothreitol, 2.5 mM EGTA, 1 mM NaF, 0.1 mM Na3VO4), and sufficiently mixed with 20 μL of IP kinase buffer. The kinase reaction was initiated by the addition of […] of [γ-^32P]ATP to 40 μL of IP kinase buffer. The reaction was allowed to proceed at 30° C. for 30 min. After addition of 5 μL of 2×SDS sample buffer, the reaction was quenched by boiling for 5 min, which was confirmed by SDS-PAGE electrophoresis and autoradiography.

T1 sequence (Q86UX6 whole entry): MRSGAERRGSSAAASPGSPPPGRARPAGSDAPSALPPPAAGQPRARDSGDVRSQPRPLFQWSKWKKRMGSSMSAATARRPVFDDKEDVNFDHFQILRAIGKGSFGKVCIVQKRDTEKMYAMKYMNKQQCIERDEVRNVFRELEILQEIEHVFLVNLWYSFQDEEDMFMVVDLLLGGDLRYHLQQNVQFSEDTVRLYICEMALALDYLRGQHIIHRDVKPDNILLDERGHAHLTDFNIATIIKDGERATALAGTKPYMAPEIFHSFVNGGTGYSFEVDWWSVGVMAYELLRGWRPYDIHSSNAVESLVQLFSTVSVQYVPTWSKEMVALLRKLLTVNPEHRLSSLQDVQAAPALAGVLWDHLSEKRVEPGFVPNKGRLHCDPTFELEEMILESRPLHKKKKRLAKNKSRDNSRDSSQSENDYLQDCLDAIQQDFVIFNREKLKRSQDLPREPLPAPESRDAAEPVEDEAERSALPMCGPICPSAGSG

Inhibition, % (inhibitions (%) of YANK3 phosphorylation) (YANK3) [%]	SMILES	concentration-dependent inhibition of proliferation of YANK-expressed cells [1]
65	N=C(N)c1ccc2[nH]c(-c3cc(-c4ccc(Cl)cc4)ccc3O)cc2c1 [Compound 32, 2-(4′-Chloro-4-hydroxybiphenyl-3-yl)-1H-indole-5-carboximidamide]	inhibited the proliferation of the YANK-expressed cells with high efficacy with increasing concentration
30	N=C(N)c1ccc2[nH]c(-c3cc(-c4cccs4)ccc3O)cc2c1 [Compound 33, 2-(2-Hydroxy-5-(thiophen-2-yl)phenyl)-1H-indole-5-carboximidamide]	–
74	Oc1ccc(Br)cc1-c1cc2cc(F)ccc2[nH]1 [Formula 7, 4-Bromo-2-(5-fluoro-1H-indol-2-yl)phenol]	inhibited the proliferation of the YANK-expressed cells with high efficacy with increasing concentration
144	N#Cc1ccc2[nH]c(-c3cc(Br)ccc3O)cc2c1 [Formula 9, 2-(5-Bromo-2-hydroxyphenyl)-1H-indole-5-carbonitrile]	inhibited the proliferation of the YANK-expressed cells with high efficacy with increasing concentration
163	COc1ccc(-c2ccc(O)c(-c3cc4ccccc4[nH]3)c2)cc1 [Formula 11, 3-(1H-Indol-2-yl)-4′-methoxybiphenyl-4-ol]	–
125	Oc1ccc(-c2ccc(Cl)cc2)cc1-c1cc2cc(Cl)ccc2[nH]1 [Formula 16, 4′-Chloro-3-(5-chloro-1H-indol-2-yl)biphenyl-4-ol]	–

SMILES	Inhibition, % (inhibitions (%) of YANK3 phosphorylation) (YANK3) [%]	concentration-dependent inhibition of proliferation of YANK-expressed cells [1]
Oc1ccc(-c2ccc(Cl)cc2)cc1-c1cc2cc(F)ccc2[nH]1 [Formula 13]	93	inhibited the proliferation of the YANK-expressed cells with high efficacy with increasing concentration
